Experiments:
[1] = target: T1, CYP3A4 (Homo sapiens, UniProt P08684); experiment: CYP inhibition assay (P450-Glo) CYP3A4; format: in vitro ADME; details: P450-Glo CYP3A4 Screening System (CYP enzyme), read-out: CYP inhibition 3A4
T1 construct: purchased Promega Corp. V9920
Description: Five major screening systems: P450-Glo CYP1A2 Screening System (Catalog# V9770), P450-Glo CYP2C9 Screening System (Catalog# V9790), P450-Glo CYP2C19 (Catalog# V9880), P450-Glo CYP 2D6 (Catalog# V9890), and P450-Glo CYP3A4 (Catalog# V9920) were attained from Promega Corp. (Madison, WI). α-naphthoflavone, sulfaphenazole, amitriptyline, quinidine, and ketoconazole were identified as positive control inhibitors for CYP1A2, CYP2C9, CYP2C19, CYP2D6, and CYP3A4, respectively. The CYP enzyme and substrate were combined in a potassium phosphate (KPO4) buffer and the reaction is initiated by adding an NADPH regenerating system. The volume of the mixture (12.5 μL in a 96-well plate) was combined with an equal volume of test compound solution and positive control inhibitor (12.5 μL added to make the volume 25 μL). The reaction of the NADPH regeneration system was initiated by adding a 2× concentration of NADPH solution. Then an equal volume of luciferin detection reagent was added. The plates were incubated at room temperature for 20 min and the luminescence signal was measured by a microplate reader device.

[2] = target: T2, TPH1 (Homo sapiens, UniProt P17752); experiment: TPH1 enzyme inhibition, in vitro screening (BPS Bioscience kit, fluorescence); format: biochemical
T2 construct: purchased BPS Bioscience
T2 sequence (P17752 1-444): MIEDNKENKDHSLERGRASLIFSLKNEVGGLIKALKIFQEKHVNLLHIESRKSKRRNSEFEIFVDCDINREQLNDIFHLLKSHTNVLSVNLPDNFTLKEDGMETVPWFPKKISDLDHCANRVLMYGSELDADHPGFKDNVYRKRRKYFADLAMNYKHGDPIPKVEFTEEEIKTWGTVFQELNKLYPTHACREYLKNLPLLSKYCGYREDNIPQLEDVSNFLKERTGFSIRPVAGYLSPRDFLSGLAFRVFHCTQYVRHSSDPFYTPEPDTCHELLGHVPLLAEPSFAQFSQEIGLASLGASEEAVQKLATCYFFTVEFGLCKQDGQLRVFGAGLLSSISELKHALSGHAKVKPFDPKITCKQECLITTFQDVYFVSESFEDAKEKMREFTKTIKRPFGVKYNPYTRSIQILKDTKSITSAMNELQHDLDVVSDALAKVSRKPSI
Protocol: Consequently, the core structure of thienopyrimidine tyrosine (derivative 6) was selected as the starting point for the synthesis, evaluating the structure-activity relationships (SAR), and optimization of TPH1 inhibitors. […]
In vitro screening was performed as described previously [PMID: 33417443]. Briefly, TPH1 enzyme activity was measured with a commercially available kit (BPS Bioscience). Compounds were dissolved in DMSO (Sigma). Then, 10 μL of the compound was dispensed into a 96-well microplate, and 40 μL of the TPH1 enzyme solution (320 ng enzyme/reaction) was added. Then, 50 μL of the TPH1 reaction solution was added, and the microplate was sealed with aluminum foil. The microplate was immediately cooled to 4 °C, gently shaken, and incubated for 4 h. After a defined time, 10 μL of the TPH1 quench solution was added. Then, the fluorescence was measured with a Flexstation3 microplate reader at 300 nm for excitation and 360 nm for emission. All experiments were performed in triplicate.

[3] = test system: 3T3-L1 cells; experiment: In vitro efficacy test: lipogenic/adipogenic gene expression during 3T3-L1 adipocyte differentiation; format: cell-based, mouse; details: 10 μM or 50 μM, vs vehicle
Protocol: 3T3-L1 cells (American Type Culture Collection, Manassas, VA, USA) were cultured in DMEM supplemented with 10% FCS and […] P/S in a humidified chamber under 5% atmospheric CO2 at 37 °C. Two days after reaching confluence, cells were further cultured in adipocyte differentiation medium (DMEM/10% FBS, P/S, 0.5 mM IBMX, 1 μg mL^−1 insulin, and 1 μM dexamethasone) (day 0). After 2 days, the medium was changed to adipocyte maintenance medium (DMEM/10% FBS, 1 μg mL^−1 insulin, P/S) (day 2), and the media was changed every 2 days from day 4 to 8. Cells were treated with compound 6 at 10 or 50 μM concentrations throughout adipocyte differentiation (day 0 thru day 8). On day 8, differentiated 3T3-L1 […] were harvested for analysis of gene expression.
Total RNA was extracted from 3T3-L1 cells using Trizol reagent (Invitrogen, Carlsbad, CA, USA), purified using a RNeasy Lipid Tissue Mini kit (Qiagen, Hilden, Germany), and an aliquot (2 µg) of total RNA was reversed transcribed using the RevertAidTM First Strand cDNA Synthesis Kit (Thermo Fisher Scientific, Waltham, MA, USA) according to the manufacturer’s instructions. Real-time PCR was carried out using SYBR Green (Power SYBR Green PCR Master Mix, Thermo Fisher Scientific) with a ViiA™ 7 Real-Time PCR system (Applied Biosystems, Waltham, MA, USA). […]

T1 sequence (P08684 whole entry): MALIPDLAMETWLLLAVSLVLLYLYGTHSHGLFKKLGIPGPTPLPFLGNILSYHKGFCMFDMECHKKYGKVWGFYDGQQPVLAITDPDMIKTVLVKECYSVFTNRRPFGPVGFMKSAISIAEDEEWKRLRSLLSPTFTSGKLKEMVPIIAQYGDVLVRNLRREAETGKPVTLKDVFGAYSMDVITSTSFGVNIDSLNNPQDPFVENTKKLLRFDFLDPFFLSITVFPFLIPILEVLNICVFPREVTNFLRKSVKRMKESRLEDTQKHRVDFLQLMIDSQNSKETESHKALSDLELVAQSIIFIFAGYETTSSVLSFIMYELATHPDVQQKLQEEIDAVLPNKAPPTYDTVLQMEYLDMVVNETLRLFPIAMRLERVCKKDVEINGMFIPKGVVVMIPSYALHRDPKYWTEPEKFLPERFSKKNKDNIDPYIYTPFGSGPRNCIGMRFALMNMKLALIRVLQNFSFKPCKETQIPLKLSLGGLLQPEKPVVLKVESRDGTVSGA

## Cc1ccn(-c2cc(Cl)ccc2[C@@H](Oc2ncnc3c(-c4ccc(C[C@H](N)C(=O)O)cc4)csc23)C(F)(F)F)n1.Cl [Compound 18i, (S)-2-amino-3-(4-(4-((R)-1-(4-chloro-2-(3-methyl-1H-pyrazol-1-yl)phenyl)-2,2,2-trifluoroethoxy)thieno[3,2-d]pyrimidin-7-yl)phenyl)propanoic acid hydrochloride]
[1]
  inhibition at 10 µM: 45.3%
[2]
  IC50: 37 nM
[2]; 1 µM compound
  inhibition at 1 µM: 95%
[3]
  Expression of lipogenic genes Fasn, Srebp1c and adipogenic transcription factors Pparg, Cebpa: decreased expression of key lipogenic genes

Reference: article PMC9182086, “Identification of New Non-BBB Permeable Tryptophan Hydroxylase Inhibitors for Treating Obesity and Fatty Liver Disease” (Molecules, 2022)
